# Data reported in patent EP0098141A2, “Prostaglandin D analogues, process for their preparation and compositions containing them” (ONO PHARMACEUTICAL CO., LTD., priority 1982, dated 1984).
# How the values were obtained:
# [1] = tested on: human myelogenous leukemic cells (HL-60); test: Inhibition of proliferation using human myelogenous leukemic cells (HL-60); type: cell-based; conditions: 96 h, HL-60 cells, stationary culture at 37°C for 4 days, surviving cell number (Trypan Blue) relative to control
# Procedure: The test on the inhibition of proliferation of human myelogenous leukemic cells was conducted by a well known method. The human myelogenous leukemic cells (HL-60) were added to an RPMI culture solution containing 10% bovine fetal serum, the number of cells in the culture solution was adjusted to 1x10^5 cells/ml, a solution in ethanol of the test compound was added to give a concentration of 5µg/ml or 1 µg/ml, and the mixture was subjected to stationary culture at 37°C for 4 days. As a control, a culture solution containing 0.1% of ethanol was similarly cultured. The culture solutions were stained by the Trypan Blue staining method, and the surviving cell number was measured to determine the degree of inhibition relative to the control.
# [2] = tested on: cells originated from human mouth tumor (KB-cells); test: Inhibition of proliferation using cells originated from human mouth tumor (KB-cells); type: cell-based; conditions: 96 h, stationary culture at 37°C for 4 days, surviving cell number (Trypan Blue) relative to control
# Procedure: The test on the inhibition of proliferation of cells originated from human mouth tumor was conducted by a well known method. The cells originated from human mouth tumor (KB-cells) were added to Eagle's MEM culture solution containing 10% bovine fetal serum, the number of cells in the culture solution was adjusted to 1x10^5 cells/ml, a solution in ethanol of the test compound was added to give a concentration of […] and the mixture was subjected to stationary culture at 37°C for 4 days. As a control, a culture solution containing 0.1% of ethanol was similarly cultured. After the culture, the culture solutions were stained by the Trypan Blue staining method, and the surviving cell number was measured to determine the degree of inhibition relative to the control.
# Ehrlich ascites tumor = test: Prolongation of survival of mice inoculated with Ehrlich ascites tumor; type: in vivo; design: unit not given here; conditions: ICR mice inoculated intraperitoneally with Ehrlich ascites tumor cells (3 x 10^6/mouse) on day 0, 20 mg/kg/day intraperitoneally from day 1 to day 5
# Procedure: The test on the prolongation of survival of mice inoculated with Ehrlich ascites tumor was conducted by a well known method. ICR mice, weighing 25 - 30 g, were inoculated with Ehrlich ascites tumor cells (3 x 10^6/mouse) intraperitoneally on day 0. A test compound was administered to mice intraperitoneally at a dose of 20 mg/kg/day from day 1 to day 5. Throughout the experiments, each group consisted of six mice (eight mice in control group). The effects of the test compounds were judged by the prolongation of survival time in days. In the Table 2, T/C was calculated below. [formula]
# [3] = Acute toxicity by intraperitoneal administration in mice; conditions: mouse, in vivo, ip
# Procedure: The acute toxicity of the compounds of the present invention was more than 100 mg/kg by intraperitoneal administration in mice, so that the PGD analogues of the present invention may be considered to be sufficiently safe and suitable for medical use.
SMILES,inhibition at 1 µg/mL [1],inhibition at 5 µg/mL [1],inhibition at 1 µg/mL [2],inhibition at 5 µg/mL [2],T/C (Ehrlich ascites tumor),LD50 [3]
"CCCCCC=CC=C1C(=O)C=CC1CC=CCCCC(=O)N(C)C (stereo not shown) [Compound 8, (5Z,9Z,14EZ)-N,N-Dimethyl-11-oxoprosta-5,9,12,14-tetraen-1-amide]",30.9%,100%,9.5%,100%,,
"CCCCC[C@H](O)/C=C/[C@H]1C(=O)C=C[C@@H]1C/C=C\CCCC(=O)NS(C)(=O)=O [Compound 4, 9-Deoxy-Δ^9-PGD2 methanesulfonylamide]",3.9%,1.5%,12.6%,25.5%,,
"CCCCCC=CC=C1C(=O)C=CC1CC=CCCCC(=O)CO (stereo not shown) [Compound 3, (5Z,9Z,14EZ)-1-Hydroxymethylprosta-5,9,12,14-tetraene-1,11-dione]",100%,100%,10.6%,100%,244.6,
"CCCCCC=CC=C1C(=O)C=CC1CC=CCCCC(N)=O (stereo not shown) [Compound 11, (5Z,9Z,14EZ)-11-Oxoprosta-5,9,12,14-tetraen-1-amide]",,,0.9%,100%,155.6,
"CCCCC[C@H](O)/C=C/[C@H]1C(=O)C[C@H](O)[C@@H]1C/C=C\CCCC(N)=O [Compound 9, (5Z,13E)-(9α,15S)-9,15-Dihydroxy-11-oxoprosta-5,13-dien-1-amide]",21.5%,97.8%,2.8%,98.8%,,
"CCCCC[C@H](O)/C=C/[C@H]1C(=O)C=C[C@@H]1C/C=C\CCCC(=O)N(C)C [Compound 7, (5Z,9Z,13E)-(15S)-N,N-Dimethyl-11-oxo-15-hydroxyprosta-5,9,13-trien-l-amide]",41.8%,100%,23.7%,100%,,
"CCCCC[C@H](O)/C=C/[C@H]1C(=O)C=C[C@@H]1C/C=C\CCCC(=O)CO [Compound 2, 2-Decarboxy-2-glycoloyl-9-deoxy-Δ^9-PGD2]",100%,100%,90.9%,100%,70.5,
"CCCCC[C@H](O)/C=C/[C@H]1C(=O)C=C[C@@H]1C/C=C\CCCC(N)=O [Compound 10, (52,9Z,13E)-(15S)-11-Oxo-15-hydroxyprosta-5,9,13-trien-1-amide]",,,15.4%,100%,,167 mg/kg
"CCCCC[C@H](O)/C=C/[C@H]1C(=O)C[C@H](O)[C@@H]1C/C=C\CCCC(=O)CO [Compound 1, 2-Decarboxy-2-glycoloyl-PGD2]",20.4%,96.7%,23.5%,100%,75.3,156 mg/kg
"CCCCC[C@H](O)/C=C/[C@H]1C(=O)C[C@H](O)[C@@H]1C/C=C\CCCC(=O)N(C)C [Compound 6, (SZ,13E)-(9a,15S)-N,N-Dimethyl-9,15-dihydroxy-11-oxoprosta-5,13-dien-1-amide]",9.9%,99.1%,19.6%,100%,,
"CCCCCC=CC=C1C(=O)C=CC1CC=CCCCC(=O)NS(C)(=O)=O (stereo not shown) [Compound 5, (5Z,9Z,14EZ)-N-Methanesulfonyl-11-oxoprosta-5,9,12,14-tetraen-1-amide]",0%,78.1%,0.9%,34.6%,,
